Source: US10906916B2, “Thienopyrimidinones as ubiquitin-specific protease 7 inhibitors” (Valo Early Discovery, Inc., priority 2015, dated 2021)

Biological target: T1, USP7 (construct USP7 (208-1102) 6*His) (Homo sapiens, UniProt Q93009)
T1 construct: USP7, construct USP7 (208-1102) 6*His, Viva Biotech; 6xHis; purchased Viva Biotech
Assay: USP7 Assay (Ubiquitin-Rhodamine110 Assay)
Assay type: biochemical
Details: Ub-Rh110 substrate 25 nM, enzyme 62.5 pM, 30 min preincubation; read-out: USP7_IC50
Protocol: Each assay was performed in a final volume of 15 μL in assay buffer containing 20 mM Tris-HCl (pH 8.0, (1M Tris-HCl, pH 8.0 solution; Corning 46-031-CM)), 1 mM GSH (L-Glutathione reduced; Sigma #G4251), 0.03% BGG (0.22 μM filtered, Sigma, #G7516-25G), and 0.01% Triton X-100 (Sigma, #T9284-10L). Nanoliter quantities of either an 8-point or 10-point, 3-fold serial dilution in DMSO was pre-dispensed into assay plates (Perkin Elmer, ProxiPlate-384 F Plus, #6008269) for a final test concentration range of either 25 μM to 11 nM or 25 μM to 1.3 nM, respectively. The final concentration of the enzyme (USP7, construct USP7 (208-1102) 6*His, Viva Biotech) in the assay was 62.5 pM. Final substrate (Ub-Rh110; Ubiquitin-Rhodamine 110, R&D Systems #U-555) concentration was 25 nM with [Ub-Rh110]<<Km. 5 μL of 2× enzyme was added to assay plates (pre-stamped with compound) preincubated with USP7 for 30 min and then 5 μL of 2× Ub-Rh110 was added to assay plates. Plates were incubated stacked for 20 min at room temperature before addition of 5 μL, of stop solution (final concentration of 1.0 mM citric acid in assay buffer (Sigma, #251275-500G)). Fluorescence was read on the Envision (Excitation at 485 nm and Emission at 535 nm; Perkin Elmer) or on the PheraSTAR (Excitation at 485 nm and Emission at 535 nm; BMG Labtech).
Data from USP7 Assay was reported as percent inhibition (inh) compared with control wells based on the following equation: % inh=1−((FLU−AveLow)/(AveHigh−AveLow)) where FLU=measured Fluorescence; AveLow=average Fluorescence of no enzyme control (n=16); and AveHigh=average Fluorescence of DMSO control (n=16). IC50 values were determined by curve fitting of the standard 4 parameter logistic fitting algorithm included in the Activity Base software package: IDBS XE Designer Model205. Data is fitted using the Levenburg Marquardt algorithm.

T1 sequence (Q93009 208-1102): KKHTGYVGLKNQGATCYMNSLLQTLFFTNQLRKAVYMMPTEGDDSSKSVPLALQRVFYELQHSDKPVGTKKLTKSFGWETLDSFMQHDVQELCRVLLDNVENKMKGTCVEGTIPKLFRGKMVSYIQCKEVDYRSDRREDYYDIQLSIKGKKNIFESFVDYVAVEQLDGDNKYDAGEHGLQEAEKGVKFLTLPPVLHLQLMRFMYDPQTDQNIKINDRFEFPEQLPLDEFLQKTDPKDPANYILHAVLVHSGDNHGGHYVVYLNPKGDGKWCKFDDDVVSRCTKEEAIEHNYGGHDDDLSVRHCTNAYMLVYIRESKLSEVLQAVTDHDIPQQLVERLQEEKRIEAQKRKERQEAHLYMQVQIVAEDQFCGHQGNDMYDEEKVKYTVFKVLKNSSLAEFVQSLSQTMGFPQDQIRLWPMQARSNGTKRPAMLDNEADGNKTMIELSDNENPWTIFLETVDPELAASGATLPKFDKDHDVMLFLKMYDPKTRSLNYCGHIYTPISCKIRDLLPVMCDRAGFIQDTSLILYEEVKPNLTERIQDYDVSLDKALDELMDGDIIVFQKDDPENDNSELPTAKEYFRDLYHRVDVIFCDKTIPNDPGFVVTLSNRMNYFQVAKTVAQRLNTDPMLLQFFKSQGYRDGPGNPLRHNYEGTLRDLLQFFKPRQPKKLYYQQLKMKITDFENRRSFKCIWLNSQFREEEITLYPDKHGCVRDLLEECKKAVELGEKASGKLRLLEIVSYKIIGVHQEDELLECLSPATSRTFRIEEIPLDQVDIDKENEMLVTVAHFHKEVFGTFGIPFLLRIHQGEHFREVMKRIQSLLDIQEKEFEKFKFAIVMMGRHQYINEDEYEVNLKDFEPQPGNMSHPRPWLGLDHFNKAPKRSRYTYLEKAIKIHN

Structure (SMILES) | IC50 [nM]
CC(CC(=O)N1CCC(O)(Cn2cnc3sccc3c2=O)CC1)c1ccccc1 (stereo not drawn) [Compound I-1, 3-((4-hydroxy-1-(3-phenylbutanoyl)piperidin-4-yl)methyl)thieno[2,3-d]pyrimidin-4(3H)-one] | 300 to 1000
CC(CC(=O)N1CCC(O)(Cn2cnc3sc4c(c3c2=O)CCCC4)CC1)c1ccccc1 (stereo not drawn) [Compound I-2, 3-((4-hydroxy-1-(3-phenylbutanoyl)piperidin-4-yl)methyl)-5,6,7,8-tetrahydrobenzo[4,5]thieno[2,3-d]pyrimidin-4(3H)-one] | > 10000
CC(CC(=O)N1CCC(O)(Cn2cnc3sc4c(c3c2=O)CCC4)CC1)c1ccccc1 (stereo not drawn) [Compound I-3, 3-((4-hydroxy-1-(3-phenylbutanoyl)piperidin-4-yl)methyl)-3,5,6,7-tetrahydro-4H-cyclopenta[4,5]thieno[2,3-d]pyrimidin-4-one] | 1000 to 10000
CCCc1cc2c(=O)n(CC3(O)CCN(C(=O)CC(C)c4ccccc4)CC3)cnc2s1 (stereo not drawn) [Compound I-4, 3-((4-hydroxy-1-(3-phenylbutanoyl)piperidin-4-yl)methyl)-6-propylthieno[2,3-d]pyrimidin-4(3H)-one] | 300 to 1000
CCC(CC(=O)N1CCC(O)(Cn2cnc3sccc3c2=O)CC1)c1ccccc1 (stereo not drawn) [Compound I-5, 3-((4-hydroxy-1-(3-phenylpentanoyl)piperidin-4-yl)methyl)thieno[2,3-d]pyrimidin-4(3H)-one] | 1000 to 10000
Cc1cc2c(=O)n(CC3(O)CCN(C(=O)CC(C)c4ccccc4)CC3)cnc2s1 (stereo not drawn) [Compound I-6, 3-((4-hydroxy-1-(3-phenylbutanoyl)piperidin-4-yl)methyl)-6-methylthieno[2,3-d]pyrimidin-4(3H)-one] | < 300
CCc1cc2c(=O)n(CC3(O)CCN(C(=O)CC(C)c4ccccc4)CC3)cnc2s1 (stereo not drawn) [Compound I-7, 6-ethyl-3-((4-hydroxy-1-(3-phenylbutanoyl)piperidin-4-yl)methyl)thieno[2,3-d]pyrimidin-4(3H)-one] | < 300
Cc1sc2ncn(CC3(O)CCN(C(=O)CC(C)c4ccccc4)CC3)c(=O)c2c1C (stereo not drawn) [Compound I-8, 3-((4-hydroxy-1-(3-phenylbutanoyl)piperidin-4-yl)methyl)-5,6-dimethylthieno[2,3-d]pyrimidin-4(3H)-one] | > 10000
COc1ccc(C(=O)N2CCC(O)(Cn3cnc4c(-c5ccc(F)cc5)csc4c3=O)CC2)cc1 [Compound I-9, 7-(4-fluorophenyl)-3-((4-hydroxy-1-(4-methoxybenzoyl)piperidin-4-yl)methyl)thieno[3,2-d]pyrimidin-4(3H)-one] | 1000 to 10000
O=C(c1ccccc1)N1CCC(O)(Cn2cnc3c(-c4ccc(F)cc4)csc3c2=O)CC1 [Compound I-10, 3-((1-benzoyl-4-hydroxypiperidin-4-yl)methyl)-7-(4-fluorophenyl)thieno[3,2-d]pyrimidin-4(3H)-one] | 1000 to 10000
CN(C)C/C=C/C(=O)NCCCCC(=O)N1CCC(O)(Cn2cnc3c(-c4ccc(F)cc4)csc3c2=O)CC1 [Compound I-11, (E)-4-(dimethylamino)-N-(5-(4-((7-(4-fluorophenyl)-4-oxothieno[3,2-d]pyrimidin-3(4H)-yl)methyl)-4-hydroxypiperidin-1-yl)-5-oxopentyl)but-2-enamide] | 1000 to 10000
CN(C)C/C=C/C(=O)NCCCC(=O)N1CCC(O)(Cn2cnc3c(-c4ccc(F)cc4)csc3c2=O)CC1 [Compound I-12, (E)-4-(dimethylamino)-N-(4-(4-((7-(4-fluorophenyl)-4-oxothieno[3,2-d]pyrimidin-3(4H)-yl)methyl)-4-hydroxypiperidin-1-yl)-4-oxobutyl)but-2-enamide] | 1000 to 10000
